Laboratory results as given in patent US8802704B2, “Oxadiazole derivatives” (Merck Serono SA, priority 2009, dated 2014).
Where two headings read alike, the source gives them in different places.

What was measured:
S1P3 = S1P3 (Homo sapiens, UniProt Q99500); experiment: Receptor binding assay, [33P]sphingosine 1-phosphate competition (SPA), S1P3
Method: Membranes were prepared from CHO cells expressing S1P1 or S1P3 for use in ligand and […] binding studies. Cells were suspended in 50 mM TRIS, pH 7.4, 2 mM EDTA, 250 mM Sucrose (buffer A) and 1× Complete protease inhibitor cocktail (Roche), and disrupted at 4° C. by N2 decompression using a cell disruption bomb (Parr Instrument). Following centrifugation at 1000 RPM for 10 min at 4° C., the supernatant was diluted (2×) in buffer A and centrifuged again at 19000 RPM for 75 min at 4° C. The pellet was then suspended in 10 mM HEPES, pH 7.4, 1 mM EDTA, 250 mM Sucrose (Buffer B), and 1× Complete EDTA-free protease inhibitor cocktail and homogenized using a potter. Membranes were flash frozen in liquid N2 and stored at −80° C.
[33P]sphingosine 1-phosphate (3000 Ci/mmol; American Radiolabeled Chemicals, Inc.) was added to test compounds in 20% DMSO by competition. Membranes and WGA SPA beads (GE Healthcare) were added to give a final volume of 100 μl in 96-well plates or 50 μl in 384-well plates with assay concentrations of 30 pM or 15 pM [33P]sphingosine 1-phosphate (respectively for S1P1 or S1P3), 50 mM HEPES, pH 7.5, 5 mM MgCl2, 100 mM NaCl, 0.4% fatty acid-free BSA, 1-5 μg/well of proteins in 96-well plates vs 0.6-1 μg/well of proteins in 384-well plates and 100 μg/well of WGA SPA beads in 96-well plates vs 75 μg/well of WGA SPA beads in 384-well plates. Binding was performed for 60 min at RT on a shaker and bound radioactivity was measured on a PerkinElmer 1450 MicroBeta counter. Triplicate samples were averaged and normalized as percentage of inhibition relative to total binding (only DMSO in well) and non-specific binding (1000-fold excess of unlabeled S1P). Binding data were analyzed using the GraphPad Prism program or Genedata software.

S1P1 [1] = molecular target: T1, S1P1 (Homo sapiens, UniProt P21453); experiment: Receptor binding assay, [33P]sphingosine 1-phosphate competition (SPA), S1P1
Method: Cells were suspended in 50 mM TRIS, pH 7.4, 2 mM EDTA, 250 mM Sucrose (buffer A) and 1× Complete protease inhibitor cocktail (Roche), and disrupted at 4° C. by N2 decompression using a cell disruption bomb (Parr Instrument). […] The pellet was then suspended in 10 mM HEPES, pH 7.4, 1 mM EDTA, 250 mM Sucrose (Buffer B), and 1× Complete EDTA-free protease inhibitor cocktail and homogenized using a potter. Membranes were flash frozen in liquid N2 and stored at −80° C.
[33P]sphingosine 1-phosphate (3000 Ci/mmol; American Radiolabeled Chemicals, Inc.) was added to test compounds in 20% DMSO by competition. […] Triplicate samples were averaged and normalized as percentage of inhibition relative to total binding (only DMSO in well) and non-specific binding (1000-fold excess of unlabeled S1P). Binding data were analyzed using the GraphPad Prism program or Genedata software.
Target sequence in this assay (P21453 whole entry, species assumed): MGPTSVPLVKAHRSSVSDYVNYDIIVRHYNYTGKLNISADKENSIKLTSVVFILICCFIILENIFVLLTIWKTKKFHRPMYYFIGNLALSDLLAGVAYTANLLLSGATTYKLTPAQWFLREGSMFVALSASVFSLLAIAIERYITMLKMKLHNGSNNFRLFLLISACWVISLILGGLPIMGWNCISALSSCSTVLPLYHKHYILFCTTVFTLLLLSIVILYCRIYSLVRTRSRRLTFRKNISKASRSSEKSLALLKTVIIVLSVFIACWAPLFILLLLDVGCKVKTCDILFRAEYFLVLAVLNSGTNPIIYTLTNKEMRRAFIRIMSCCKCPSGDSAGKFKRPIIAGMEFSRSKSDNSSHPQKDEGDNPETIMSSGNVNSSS

S1P1 [2] = molecular target: T1, S1P1; experiment: S1P1 internalization assay in S1P1-U2OS cells (cell imaging); assay type: cell-based; settings: U2OS cells expressing S1P1-EGFP, 1 hour
Method: Cellular functional assays: Internalization of Sphingosine-1-phosphate receptor 1 (S1P1) in a human Cell line (U2OS) in a 384-well format using a Cell Imaging analysis.
The S1P1 internalization assay was performed in 384 well plates (Corning® 384 black with clear bottom 3712) using S1P1-U2OS cells from Biolmage (C039A), a human epithelial cell line (Human Bone Osteosarcoma Epithelial Cells). These cells expressed the human S1P1 Receptor fused to the green fluorescent protein (EGFP). A standard CMV promoter (cytomegalovirus promoter) controls the expression of S1P1-EGFP and continuous expression was maintained by addition of geneticin to the culture medium.
S1P1Receptor desensitization induced the internalization of the membrane-localized S1P1-EGFP fusion protein to endosomes, which can be monitored by cell imaging analysis. The cells are plated in low serum medium (Dulbecco's Modified Eagle Medium (DMEM) with Glutamax-1 and high glucose, 1% Penicillin/Streptomycin, 1% Fetal Calf Serum (FCS), 0.5 mg/ml Geneticin) overnight.
The next day, S1P1-U2OS cells are incubated in 20 μl serum free medium (DMEM with Glutamax-1 and high glucose, 0.1% of fatty-acid free Bovin Serum Albumin (BSA), 10 mM, N′-2-Hydroxyethylpiperazine-N′-2 ethanesulphonic acid (HEPES) 1M) for 2 hours at 37° C./5% CO2. The cells are then treated with 4 μl compounds/agonists (6×/3% DMSO) for a total volume of 24 μl, and plates are incubated for 1 hour at 37° C./5% CO2.
S1P1-U2OS cells are fixed with 25 μl Paraformaldehyde 8% and stained with Hoechst 33345 dye (1:1000) for 20 minutes.
They were then washed 3 times with Phosphate Buffered Saline (PBS) and plates are sealed. The internalization of the receptor S1P1-EGFP is measured on Cellomics by calculating the “spot count per object” (“object” corresponds to nuclear and “spot” corresponds to S1P1-EGFP receptor). Internalization data were observed thanks to vHCS View and analyzed using Genedata® software.
Target sequence in this assay (P21453 whole entry): as the sequence (P21453 whole entry, species assumed) above

[3] = 96 well-plate, read-out: S1P3 binding Ki (M) (96 well-plate)
[4] = 384 well-plate, read-out: S1P3 binding Ki (M) (384 well-plate)
[5] = 96 well-plate, read-out: S1P1 binding Ki (M) (96 well-plate)
[6] = 384 well-plate, read-out: S1P1 binding Ki (M) (384 well-plate)

Chain of S1P3 (Q99500 whole entry, species assumed): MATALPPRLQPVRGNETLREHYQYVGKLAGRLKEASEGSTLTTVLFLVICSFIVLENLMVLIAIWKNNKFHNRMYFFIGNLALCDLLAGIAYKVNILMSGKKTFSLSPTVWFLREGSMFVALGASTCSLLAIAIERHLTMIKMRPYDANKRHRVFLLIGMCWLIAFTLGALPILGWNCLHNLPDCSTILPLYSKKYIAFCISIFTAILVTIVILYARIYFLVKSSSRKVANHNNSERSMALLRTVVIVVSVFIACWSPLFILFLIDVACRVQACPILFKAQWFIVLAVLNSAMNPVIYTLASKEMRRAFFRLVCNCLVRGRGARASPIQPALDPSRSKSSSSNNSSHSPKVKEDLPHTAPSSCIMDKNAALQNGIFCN

| Compound | Ki (S1P3; [3]) [M] | Ki (S1P3; [4]) [M] | Ki (S1P1 [1]; [5]) [M] | Ki (S1P1 [1]; [6]) [M] | EC50 (S1P1 [2]) [nM] |
| --- | --- | --- | --- | --- | --- |
| COCc1cc(-c2nc(-c3ccc(CN(C)CC(=O)O)c(F)c3)no2)ccc1-c1ccccc1C(F)(F)F [Example 95, N-(2-fluoro-4-{5-[2-(methoxymethyl)-2′-(trifluoromethyl)biphenyl-4-yl]-1,2,4-oxadiazol-3-yl}benzyl)-N-methylglycine] | 6.5e-07 | 1.03e-06 | 4.26e-10 | 3.67e-09 | 13.9 |
| Cc1ccccc1-c1ccc(-c2nc(-c3ccc(CN(CC(=O)O)C(C)C)cc3)no2)cc1C(F)(F)F [Example 113, (Isopropyl-{4-[5-(2′-methyl-2-trifluoromethyl-biphenyl-4-yl)-[1,2,4]oxadiazol-3-yl]-benzyl}-amino)-acetic acid] | 2.17e-06 | 2.7e-06 |  | 2.9e-09 | 24.8 |
| CN(CC(=O)O)Cc1ccc(-c2noc(-c3ccc(-c4ccccc4F)c(C(F)(F)F)c3)n2)cc1 [Example 89, N-(4-{5-[2′-fluoro-2-(trifluoromethyl)biphenyl-4-yl]-1,2,4-oxadiazol-3-yl}benzyl)-N-methylglycine] | 6.29e-07 | 5.69e-07 | 3.49e-10 | 1.19e-09 | 6.53 |
| Cc1cc(-c2nc(-c3cccc(CN(C)CC(=O)O)c3)no2)ccc1-c1ccccc1C(F)(F)F [Example 101, N-methyl-N-(3-{5-[2-methyl-2′-(trifluoromethyl)biphenyl-4-yl]-1,2,4-oxadiazol-3-yl}benzyl)glycine] | 9.43e-06 | 6.59e-06 |  | 5.63e-09 | 69.3 |
| CCN(CCC(=O)O)Cc1cccc(-c2noc(-c3ccc(-c4ccccc4C)c(C(F)(F)F)c3)n2)c1 [Example 69, N-ethyl-N-(3-{5-[2′-methyl-2-(trifluoromethyl)biphenyl-4-yl]-1,2,4-oxadiazol-3-yl}benzyl)-beta-alanine] | 4.67e-08 |  | 2.21e-10 | 1.47e-09 | 8.97 |
| Cc1cc(CN(C)CC(=O)O)ccc1-c1noc(-c2ccc(-c3ccccc3C)c(C(F)(F)F)c2)n1 [Example 103, 2-(methyl(3-methyl-4-(5-(2′-methyl-2-(trifluoromethyl)biphenyl-4-yl)-1,2,4-oxadiazol-3-yl)benzyl)amino)acetic acid] | 4.12e-07 | 4.68e-07 |  | 1.45e-09 | 17.7 |
| CN(CC(=O)O)Cc1cc(F)cc(-c2noc(-c3ccc(-c4ccccc4C(F)(F)F)c(Cl)c3)n2)c1 [Example 136, N-(3-{5-[2-chloro-2′-(trifluoromethyl)biphenyl-4-yl]-1,2,4-oxadiazol-3-yl}-5-fluorobenzyl)-N-methylglycine] |  | 2.32e-06 |  | 4.27e-09 | 40.9 |
| Cc1cc(-c2nc(-c3ccc(CN(C)CC(=O)O)c(F)c3)no2)ccc1-c1ccccc1C(F)(F)F [Example 123, N-(2-fluoro-4-{5-[2-methyl-2′-(trifluoromethyl)biphenyl-4-yl]-1,2,4-oxadiazol-3-yl}benzyl)-N-methylglycine] |  | 6.9e-06 |  | 3.46e-09 | 30.4 |
| Cc1ccccc1-c1ccc(-c2nc(-c3ccc(CN(C)CCC(=O)O)cc3)no2)cc1C(F)(F)F [Example 72] | 1.88e-07 |  | 2.7e-10 |  | 2.05 |
| Cc1ccccc1-c1ccc(-c2nc(-c3ccc(CN(C)CCCC(=O)O)cc3)no2)cc1C(F)(F)F [Example 116, 4-[methyl(4-{5-[2′-methyl-2-(trifluoromethyl)biphenyl-4-yl]-1,2,4-oxadiazol-3-yl}benzyl)amino]butanoic acid] | 3.33e-07 | 1.31e-06 |  | 1.33e-09 | 3.65 |
| CCc1ccccc1-c1ccc(-c2nc(-c3ccc(CN(C)CC(=O)O)cc3)no2)cc1C(F)(F)F [Example 109, N-(4-{5-[2′-ethyl-2-(trifluoromethyl)biphenyl-4-yl]-1,2,4-oxadiazol-3-yl}benzyl)-N-methylglycine] |  | 2.93e-07 |  | 1.5e-09 | 11.9 |
| COCc1cc(-c2nc(-c3ccc(CN(C)CC(=O)O)cc3)no2)ccc1-c1ccccc1C(F)(F)F [Example 97, N-(4-{5-[2-(methoxymethyl)-2′-(trifluoromethyl)biphenyl-4-yl]-1,2,4-oxadiazol-3-yl}benzyl)-N-methylglycine] | 1.57e-06 | 2.22e-06 |  | 2.08e-09 | 12 |
| Cc1cc(-c2nc(-c3ccc(CN(C)CC(=O)O)cc3Cl)no2)ccc1-c1ccccc1C(F)(F)F [Example 153, 2-((3-chloro-4-(5-(2-methyl-2′-(trifluoromethyl)biphenyl-4-yl)-1,2,4-oxadiazol-3-yl)benzyl)(methyl)amino)acetic acid] |  | 7.5e-06 |  | 3.32e-09 | 50.9 |
| Cc1ccccc1-c1ccc(-c2nc(-c3ccc(CN(C)CCC(=O)O)c(F)c3)no2)cc1C(F)(F)F [Example 71, N-(2-fluoro-4-{5-[2′-methyl-2-(trifluoromethyl)biphenyl-4-yl]-1,2,4-oxadiazol-3-yl}benzyl)-N-methyl-beta-alanine] | 1.31e-07 |  |  |  |  |
| COCc1cc(-c2nc(-c3cccc(CN(C)CC(=O)O)c3)no2)ccc1-c1ccc(F)cc1C(F)(F)F [Example 50, N-(3-{5-[4′-fluoro-2-(methoxymethyl)-2′-(trifluoromethyl)biphenyl-4-yl]-1,2,4-oxadiazol-3-yl}benzyl)-N-methylglycine] | 7.71e-07 | 1.18e-06 | 8.49e-10 | 1.24e-08 | 25.3 |
| Cc1ccccc1-c1ccc(-c2nc(-c3cccc(CN(CC(=O)O)C(C)C)c3)no2)cc1C(F)(F)F [Example 117, (Isopropyl-{3-[5-(2′-methyl-2-trifluoromethyl-biphenyl-4-yl)-[1,2,4]oxadiazol-3-yl]-benzyl}-amino)-acetic acid] |  |  |  | 3.24e-09 | 50.4 |
| CCc1ccccc1-c1ccc(-c2nc(-c3ccc(CN(C)CC(=O)O)c(F)c3)no2)cc1C(F)(F)F [Example 110, N-(4-{5-[2′-ethyl-2-(trifluoromethyl)biphenyl-4-yl]-1,2,4-oxadiazol-3-yl}-2-fluorobenzyl)-N-methylglycine] |  |  |  | 6.22e-09 | 56.7 |
| CN(CC(=O)O)Cc1ccc(-c2noc(-c3ccc(-c4ccccc4C(F)(F)F)c(Cl)c3)n2)cc1 [Example 135] |  |  |  | 2.63e-09 | 26.1 |
| Cc1ccccc1-c1ccc(-c2nc(-c3ccc(Cl)c(CN(C)CC(=O)O)c3)no2)cc1C(F)(F)F [Example 111, N-(2-chloro-5-{5-[2′-methyl-2-(trifluoromethyl)biphenyl-4-yl]-1,2,4-oxadiazol-3-yl}benzyl)-N-methylglycine] |  |  |  | 3.68e-09 | 45.9 |
